# Measured values as given in patent publication US20110251238A1, “PPAR AGONIST COMPOSITIONS AND METHODS OF USE” (BIOPHARMED, priority 2008, published 2011).
# Legend:
# Format in all cases: cell-based
# [1] = system: KB3 (epitheloid lung cancer) cell lines; test: Cell growth inhibition (cytotoxicity), MTS assay, KB3 cell line
# Description: Cell growth inhibition was determined by the MTS assay; the number of viable cells were proportional to the extent of formazan production in the presence or absence of drugs. […]
# [2] = system: PC3 (human prostate cancer); test: Growth inhibition, MTT colorimetric assay, PC3; conditions: Homo sapiens, 72 h; carcinoma; 3 days with drug; means of six values; unit inferred; read-out: IC50 PC3
# Outline: (§1)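 MTT colorimetric measurement of proliferation gives the IC50, averaged from six separate values. Drug exposure lasted 3 days.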
# SKMEL28 (human melanoma) = test: Growth inhibition, MTT colorimetric assay, SKMEL-28; conditions: Homo sapiens, SK-MEL-28, 72 h; melanoma; 3 days with drug; means of six values; unit inferred; read-out: IC50 SKMEL-28
# Outline: as §1
smiles,measurement,setting,value
"Oc1ccc(CN(Cc2ccc(C(F)(F)F)cc2)Cc2ccc(O)c3ncccc23)c2cccnc12 [BPM18,708, 5,5′-(4-(trifluoromethyl)benzylazanediyl)bis(methylene)diquinolin-8-ol]",IC50,"[1]; KB3, Table 3A, MTS assay, triplicate, read-out: KB3 IC50",1 nM
same,cytotoxic activity in words,"[1]; KB3 cell line, structure-cytotoxicity discussion",most active analogue
same,IC50,[2],66 nM
same,IC50,SKMEL28 (human melanoma),> 10000 nM
